In US6518302B1, “Remedies” (Takara Shuzo Co., Ltd., priority 1999, dated 2003):
Where two headings read alike, the source gives them in different places. Blank lines part the entries; values can stand above or below the molecule they belong to.

Legend:
[1] = test system: heme oxygenase 1 protein in RAW264.7 cells; test: Heme oxygenase 1 induction (Western blot); type: cell-based; design: key: − represents no band observed; increase in the intensity of the band is represented as follows: +−<+<++; increase in the intensity of the band is represented as follows: +−<+<++; increase in the intensity of the band is represented as follows: +−<+<++; settings: 12 hours, positive control: 5 μl of 3 mM solution in dimethyl sulfoxide added to 5 ml
Description: RAW264.7 cells (ATCC TIB 71) were suspended in Dulbecco's modified Eagle's medium (Bio Whittaker, 12-604F) containing 10% fetal calf serum (Gibco) at a concentration of 3×10^5 cells/ml. 5 ml of the suspension was added to each well of a 6-well microtiter plate and the plate was incubated at 37° C. overnight in the presence of 5% CO2. 50 μl of a solution containing the compound (11) or the compound (14) at a concentration of 10 mM or 5 mM in water, 5 μl of a solution containing the compound (7) at a concentration of 50 mM or 25 mM in dimethyl sulfoxide, or 5 μl of a solution containing the compound (17) at a concentration of 100 mM or 50 mM in dimethyl sulfoxide was added to the well. The plate was incubated for 12 hours. A positive control for heme oxygenase 1 induction in which 5 μl of 3 mM solution of 15-deoxy-Δ12,14 prostaglandin J2 (Cayman Chemical, 18570) in dimethyl sulfoxide was added, and a negative control in which water was added were provided. The cells were recovered by detaching the cells from the plate using a scraper and suspended in 0.1 M tris-HCl buffer (pH 7.5) containing 0.05 mM pepstatin A (Sigma, P5318), 0.2 mM leupeptin (Sigma, L2884), 1 mM phenylmethylsulfonyl fluoride (Nacalai Tesque, 273-27), 10 mM ethylenediaminetetraacetic acid disodium salt and 0.1% Triton X-100. A supernatant obtained by centrifuging the suspension after freezing and thawing was used as a protein fraction. The content of protein in the protein fraction was determined using Micro BCA Protein Assay Reagent (a product of Pierce sold by Takara Shuzo, P7411). A sample from the protein fraction prepared as described above was mixed with an equal volume of 0.125 M tris-hydrochloride buffer (pH 6.8) containing 4% sodium lauryl sulfate (SDS), 2% 2-mercaptoethanol, 0.001% Bromophenol Blue and 20% glycerol. After treatment at 100° C. for 5 minutes, a portion corresponding to 10 μg of protein was loaded on 12.5% SDS-polyacrylamide gel and electrophoresed at a constant current of 20 mA. After electrophoresis, the gel was transferred to a PVDF membrane (Millipore, IPVH000 10) at a constant voltage of 15 V for 25 minutes using a blotting buffer (containing 48 mM tris, 39 mM glycine, 20% methanol and 0.0375% SDS) and Trans-Blot SD Cell Semi-Dry blotting apparatus (Bio-Rad) according to the attached protocol. After transferring, the PVDF membrane was blocked in a solution of Block Ace (Dainippon Pharmaceutical, UK-B25) at 4 C overnight. After blocking, the membrane washed three times in phosphate buffered saline containing 0.1% Tween 20 for 15 minutes with gentle shaking. The membrane was reacted in phosphate buffered saline containing 10% Block Ace, 0.1% Tween 20 and 200 ng/ml of anti-heme oxygenase 1 antibody (N-19; Santa Cruz, sc-7696) at room temperature for 1 hour with gentle shaking, and then washed three times in phosphate buffered saline containing 0.1% Tween 20 for 15 minutes with gentle shaking. The membrane was reacted in phosphate buffered saline containing 10% Block Ace, 0.1% Tween 20 and 0.1% peroxidase-labeled rabbit anti-goat IgG (H+L) antibody (Zymed, 61-1620) at room temperature for 1 hour with gentle shaking, and then washed five times in phosphate buffered saline containing 0.1% Tween 20 for 15 minutes with gentle shaking. The PVDF membrane was stained using Western Blot Chemiluminescence Reagent Plus (a product of NEN Life Science Products sold by Daiichi Pure Chemicals, NEL103) according to the attached protocol and exposed to an X-ray film (Kodak, CAT165 1454). After exposure, the film was developed using FPM800 (Fuji Film).
The intensity of the band depended on the concentration of the sample. In the table, the intensity of the band for heme oxygenase 1 protein is expressed by the mark +. Specifically, − represents no band observed, and increase in the intensity of the band is represented as follows: +−<+<++.

[2] = test system: Human promyelocytic leukemia HL-60 cells; test: Antiproliferation activity against HL-60 cells (MTT method); type: cell-based; settings: 48 hour incubation
Description: Human promyelocytic leukemia HL-60 cells (ATCC CCL-240) were cultured at 37° C. in RPMI 1640 medium (Gibco) containing 10% of fetal calf serum (JRH Bioscience) which had been treated at 56° C. for 30 minutes, and suspended in the same medium at a concentration of 5000 cells/90 μl. Each 90 μl portion of the suspension was distributed into each well of a 96-well plate (Falcon). To the suspension in each well was added 10 μl of one the following samples, and incubated at 37° C. in the presence of 5% CO2. The samples were 2-, 4-, 8-, 16-, 32-, 64- or 128-dilutions of filter-sterilized 200 mM aqueous solution of the compound (2) obtained in Example 1, 50 mM aqueous solution of the compound (7), 50 mM aqueous solution of the compound (9), 100 mM aqueous solution of the compound (11), 100 mM aqueous solution of the compound (14), 20 mM aqueous solution of the compound (17), 12.5 mM aqueous solution of the compound (19) or 12.5 mM aqueous solution of the compound (21) with sterile water, as well as water. After 48 hour from the initiation of the incubation, the numbers of viable cells calculated based on the absorbance measured according to the MTT method as described in “Apoptosis Jikken Protocol” (Syuzyun-sha, Seiichi Tanuma, ed., pp. 156 (1994)) were compared each other.

[3] = test system: HL-60 (ATCC CCL-240) cells; test: Viability of HL-60 cells by Trypan Blue staining; type: cell-based; settings: Homo sapiens, read-out: Viability50, concentration that results in a viability of 50%
Description: HL-60 (ATCC CCL-240) cells were cultured at 37° C. in RPMI 1640 medium (Bio Whittaker) containing 10% fetal calf serum (JRH) which had been treated at 56° C. for 30 minutes and suspended in RPMI 1640 medium at a concentration of 2.5×10^5 cells/4.5 ml.
[…] each of aqueous solutions of the compound (2) at a concentration of 10, 50 or 100 mM, the compound (7) at a concentration of 500, 1000 or 1500 μM, the compound (9) at a concentration of 750, 1500 or 3000 μM, the compound (11) at a concentration of 750, 1500 or 3000 μM, or the compound (14) at a concentration of 750, 1500 or 3000 μM was added to 4.5 ml of the suspension. The mixtures were incubated at 37° C. for 24 hours in the presence of 5% CO2.
A portion of the cells cultured for 24 or 48 hours as described in Example 4 was stained with 0.4% Trypan Blue and examined under an optical microscope. The number of viable cells which were not stained and the number of dead cells which were stained blue were counted. The concentration of each of the compounds (2), (7), (9), (11) and (14) that results in a viability of 50% (Viability50 mM) was determined.

[4] = test system: HL-60 cells (ATCC CCL-240); test: Proliferation of HL-60 cells with or without hydroxyurea G1 arrest (WST-1); type: cell-based, Human; settings: 48 hours
Description: HL-60 cells (ATCC CCL-240) were suspended in RPMI 1640 medium (Bio Whittaker, 12-702F) containing 10% fetal calf serum (Gibco) and 100 μM hydroxyurea at a concentration of 5×10^5 cells/ml. 20 ml of the suspension was added to a 10-cm Petri dish. The dish was incubated at 37° C. overnight in the presence of 5% CO2 to make the cells arrest at G1 phase. The cells were collected by centrifugation and resuspended in RPMI 1640 medium containing 10% fetal calf serum (Gibco) and 100 μM hydroxyurea at a concentration of 5×10^5 cells/ml. 5 ml of the suspension was added to each well of a 6-well microtiter plate. On the other hand, as cells without the treatment with hydroxyurea, HL-60 cells were suspended in RPMI 1640 medium containing 10% fetal calf serum (Gibco) at a concentration of 1×10^5 cells/ml. 5 ml of the suspension was added to each well of a 6-well microtiter plate. 50 μl of a solution containing DGE at a concentration of 30, 22.5, 15 or 7.5 mM in water, 25 μl of a solution containing the compound (7) at a concentration of 60, 45, 30 or 15 mM in dimethyl sulfoxide, or 25 μl of a solution containing the compound (17) at a concentration of 100, 75, 50 or 25 mM in dimethyl sulfoxide was added to the well containing the cells treated with hydroxyurea. 50 μl of a solution containing DGE at a concentration of 8, 6, 4 or 2 mM in water, 25 μl of a solution containing the compound (7) at a concentration of 30, 22.5, 15 or 7.5 mM in dimethyl sulfoxide, or 25 μl of a solution containing the compound (17) at a concentration of 80, 60, 40 or 20 mM in dimethyl sulfoxide was added to the well containing the cells without the treatment with hydroxyurea. The plate was incubated for additional 48 hours. Cells collected by centrifuging the culture were suspended in 5 ml of fresh RPMI 1640 medium containing 10% fetal calf serum (Gibco). 100 μl of the suspension was used for measuring viable cell number using Premix WST-1 Cell Proliferation Assay System (Takara Shuzo, MK400).
For each of the samples, the concentration at which 50% of the proliferation is inhibited (IC50) for the cells treated with hydroxyurea was higher than that for the cells without the treatment with hydroxyurea. Table 3 summarizes IC50 (μM) for each of the samples. […] Since most of cells in a living body are arrested at G1 phase, it is considered that DGE and R-AhGal compounds (precursors of DGE) are agents less toxic to a living body.

SMILES: CCCCC/C=C/C=C1/C(=O)C=C[C@@H]1C/C=C\CCCC(=O)O [15-deoxy-Δ12,14 prostaglandin J2, reference compound]
Intensity of band for heme oxygenase 1 protein [1]: +

IC50 ([2]; Homo sapiens, HL-60 cells, read-out: IC50, concentration at which 50% of the proliferation is inhibited): 113 µM | IC50 ([3]; 24 hours): 17.2 mM | IC50 ([3]; 48 hours): 0.189 mM
SMILES: CC(=O)OCC1OC(OC2C(O)COC2C(O)C(O)O)C(OC(C)=O)C(OC(C)=O)C1OC(C)=O [Compound (9), 4-O-(β-D-2,3,4,6-tetra-O-acetylgalactopyranosyl)-3,6-anhydro-D-galactose]
antiproliferation activity against HL-60 cells [2]: exhibited antiproliferation activities

IC50 ([4]; HL-60 cells arrested at G1 phase with 100 μM hydroxyurea, read-out: IC50, Cells treated with hydroxyurea): 101 µM | IC50 ([4]; HL-60 cells, read-out: IC50, Cells without treatment with hydroxyurea): 49.5 µM
SMILES: O=C1C=CC(CO)OC1O [DGE, L-glycero-1,5-epoxy-1αβ,6-dihydroxy-cis-hex-3-en-2-one, reference compound]
